# Read-outs that look alike come from different tables or passages of the source.
# Tests used:
# [1] = test system: A375 (Human melanoma, B-Raf V599E); assay: Cell proliferation assay (Cell Titer Glo); type: cell-based; conditions: Homo sapiens, A-375, read-out: Kinase Inhibitor IC50
# Protocol: (§1) In one illustrative method, cells are treated with various concentrations of the inhibitor in 96 well plates, incubated at 37° C./5% CO2 for three days, and analyzed using the Cell Titer Glo kit (Promega).
# [2] = test system: A549 (NSCLC, B-Raf wild-type); assay: Cell proliferation assay (Cell Titer Glo); type: cell-based; conditions: Homo sapiens, A549, read-out: Kinase Inhibitor IC50
# Protocol: as §1
# [3] = test system: ASZ001 (Basal cell carcinoma); assay: Cell proliferation assay (Cell Titer Glo); type: cell-based
# Protocol: as §1
# [4] = test system: DU4475 (Human breast, B-Raf V599E); assay: Cell proliferation assay (Cell Titer Glo); type: cell-based; conditions: Homo sapiens, DU-4475, read-out: Kinase Inhibitor IC50
# Protocol: as §1
# [5] = test system: EOL-1 (Human leukemia FLP1L1-PDGFRA); assay: Cell proliferation assay (Cell Titer Glo); type: cell-based; conditions: Homo sapiens, EOL1, read-out: Kinase Inhibitor IC50
# Protocol: as §1
# [6] = test system: MV4-11 (Human leukemia Flt3-ITD); assay: Cell proliferation assay (Cell Titer Glo); type: cell-based; conditions: Homo sapiens
# Protocol: as §1
# [7] = test system: P815 (Mouse mastocytoma, KIT D814Y); assay: Cell proliferation assay (Cell Titer Glo); type: cell-based; conditions: Mus musculus
# Protocol: as §1
# [8] = test system: WM266-4 (Human melanoma, B-Raf V599D); assay: Cell proliferation assay (Cell Titer Glo); type: cell-based; conditions: Homo sapiens, WM 266-4, read-out: Kinase Inhibitor IC50
# Protocol: as §1
# [9] = molecular target: T1, Flt-3 (Homo sapiens, UniProt P36888); assay: Time-dependent kinase inhibition kinetics (progress curve); type: biochemical
# T1 sequence (P36888 27-993): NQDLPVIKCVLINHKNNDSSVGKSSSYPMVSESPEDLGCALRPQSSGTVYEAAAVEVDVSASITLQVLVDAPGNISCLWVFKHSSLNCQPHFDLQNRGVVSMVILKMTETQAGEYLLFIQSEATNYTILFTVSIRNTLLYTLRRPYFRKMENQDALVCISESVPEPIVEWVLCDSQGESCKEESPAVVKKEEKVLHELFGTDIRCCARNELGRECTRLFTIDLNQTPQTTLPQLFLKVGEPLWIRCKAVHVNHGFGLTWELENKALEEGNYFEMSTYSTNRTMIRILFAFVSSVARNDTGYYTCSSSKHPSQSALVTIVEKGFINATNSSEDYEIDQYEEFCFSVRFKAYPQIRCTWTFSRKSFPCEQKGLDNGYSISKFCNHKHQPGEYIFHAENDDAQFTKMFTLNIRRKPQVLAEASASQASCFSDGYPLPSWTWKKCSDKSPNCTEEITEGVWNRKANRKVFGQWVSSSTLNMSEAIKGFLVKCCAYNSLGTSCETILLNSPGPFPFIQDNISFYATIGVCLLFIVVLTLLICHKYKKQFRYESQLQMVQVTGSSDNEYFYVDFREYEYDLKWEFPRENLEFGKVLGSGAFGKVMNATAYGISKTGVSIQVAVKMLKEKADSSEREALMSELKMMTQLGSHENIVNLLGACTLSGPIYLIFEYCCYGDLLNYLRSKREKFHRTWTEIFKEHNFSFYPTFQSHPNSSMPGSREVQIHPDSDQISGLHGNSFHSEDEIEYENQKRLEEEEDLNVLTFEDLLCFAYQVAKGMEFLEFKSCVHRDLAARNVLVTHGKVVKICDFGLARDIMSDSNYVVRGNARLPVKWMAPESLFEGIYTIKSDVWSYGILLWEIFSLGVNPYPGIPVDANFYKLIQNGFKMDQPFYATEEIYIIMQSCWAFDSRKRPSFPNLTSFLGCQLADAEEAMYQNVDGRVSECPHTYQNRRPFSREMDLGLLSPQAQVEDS
# Protocol: Typically, one measures the increase in inhibition of protein kinase activity in the presence of inhibitor over time. In one method, aliquots of a “pre-incubation” reaction mixture containing enzyme and inhibitor are assayed for activity (initial velocities) over time; increased inhibition or decreased initial velocities will be observed over time as the Michael adduct forms (Walsh, C, Enzyme Reaction Mechanisms, W.H. Freeman & Co., 1979, pp 86-94). In a second method, the time dependent loss of activity is measured as “progress curves” that measure and analyze product formed (e.g. ADP) versus time (Morrison & Walsh, Adv. Enzymol Relat Areas Mol. Biol. 1988, 61, 201-301). In either case, the time dependent inactivation can be dampened by the presence of a competing substrate, in this case ATP.
# For covalent inhibitors, plots of log (activity) versus time provide apparent first-order rate constants (kobsd) of enzyme activity loss. If these assays are performed at varying concentrations of inhibitor, a series of first-order plots is obtained and kobsd obtained at each inhibitor concentration. To measure time-dependent inhibition using the “progress-curve method” (see references cited above and Kuzmic et al., Methods Enzymol 2004; 383: 366-81), ERK (or other kinase) is treated with varying amounts of the lactone inhibitor, and the formation of ADP is measured continuously by a coupled assay. […] Such molecules may be competitive inhibitors but should not show time-dependent inactivation.
# Those of skill in the art will recognize that within the set of compounds useful in the methods of the invention, significant variability in specificity can be achieved, allowing one to identify optimal compounds for different applications. Inhibition progress curve analysis was performed using continuous, colorimetric, or fluorimetric assays. All experiments were done at 1 mM ATP, with the exception of KDR (at 5 mM ATP).
# (§2) MEK1 assays were performed using pre-incubation experiments with radioactive [^32P]ATP and filter binding of product. All other kinases were analyzed using progress curve analysis from a continuous spectrophotometric assay.
# [10] = molecular target: ERK2 (UniProt P28482); type: biochemical; design: other: calculated for 0.1 μM for ~10 minutes; Ki; other: ERK2; kinact/Ki; "the target Cys 172 residue
# Protocol: In either case, the time dependent inactivation can be dampened by the presence of a competing substrate, in this case ATP.
# For covalent inhibitors, plots of log (activity) versus time provide apparent first-order rate constants (kobsd) of enzyme activity loss. If these assays are performed at varying concentrations of inhibitor, a series of first-order plots is obtained and kobsd obtained at each inhibitor concentration. […] Such molecules may be competitive inhibitors but should not show time-dependent inactivation.
# Inhibition progress curve analysis was performed using continuous, colorimetric, or fluorimetric assays. All experiments were done at 1 mM ATP, with the exception of KDR (at 5 mM ATP).
# as §2
compound,measurement,setting,value
"COc1cc(O)c2c(c1)[C@H]1O[C@@H]1C[C@H](O)[C@H](O)C(=O)/C=C\C[C@H](C)OC2=O [Hypothemycin, hypothemycin]",IC50,[1],0.18 µM
same,IC50,[2],6 µM
same,IC50,"[3]; ASZ001 (Basal cell carcinoma), read-out: Kinase Inhibitor IC50",0.1 µM
same,IC50,"[3]; BCC cell line ASZ001 in culture, read-out: IC50",~0.1 µM
same,IC50,[4],0.018 µM
same,IC50,[5],0.00041 µM
same,GI50,[6]; MV4-11,0.006 µM
same,IC50,"[6]; MV4-11, read-out: Kinase Inhibitor IC50",0.0055 µM
same,GI50,[7]; P815,0.31 µM
same,IC50,"[7]; P815, read-out: Kinase Inhibitor IC50",0.31 µM
same,IC50,[8],0.04 µM
same,kinact/KI,[9],47000 M⁻¹ s⁻¹
same,Ki,[9]; 1 mM ATP,0.15 µM
same,kinact,[9]; 1 mM ATP,0.007 s⁻¹
same,Ki,[10]; ERK2,2 µM
same,kinact/Ki,[10]; ERK2,1.9E+03
same,ERK activity inhibited,[10]; calculated for 0.1 μM for ~10 minutes,< 5%
